According to ChEMBL document CHEMBL4342417, “Design, synthesis and evaluation of novel phenothiazine derivatives as inhibitors of breast cancer stem cells” (Eur J Med Chem, 2019):

System: not listed separately
Assay: Toxicity in zebra fish assessed as survival rate at 250 uM observed for 24 hrs
Design: species or system Danio rerio
Settings: zebrafish

Row | Structure (SMILES) | survival at 24 h, 250 µM
1 | O=C(CCC(=O)N1CCN(CCCN2c3ccccc3Sc3ccc(C(F)(F)F)cc32)CC1)OCCOc1no[n+]([O-])c1S(=O)(=O)c1ccccc1 | 25.8%
2 | O=C(CCC(=O)N1CCN(CCCN2c3ccccc3Sc3ccc(C(F)(F)F)cc32)CC1)OCCCCOc1no[n+]([O-])c1S(=O)(=O)c1ccccc1 | 19.4%
3 | CSc1ccc2c(c1)N(CCCN1CCN(C(=O)CCC(=O)OCCCCOc3no[n+]([O-])c3S(=O)(=O)c3ccccc3)CC1)c1ccccc1S2 | 25.8%
4 | CSc1ccc2c(c1)N(CCCN1CCN(C(=O)CCC(=O)OCCOc3no[n+]([O-])c3S(=O)(=O)c3ccccc3)CC1)c1ccccc1S2 | 32.3%

System: MCF7
Assay: Antiproliferative activity against human MCF7 cells assessed as reduction in cell viability incubated for 2 days by MTT assay
Format: functional, cell-based
Settings: MCF7, 48 h

Row | Structure (SMILES) | IC50
5 | O=C(CCC(=O)N1CCN(CCCN2c3ccccc3Sc3ccc(C(F)(F)F)cc32)CC1)OCC#CCOc1no[n+]([O-])c1S(=O)(=O)c1ccccc1 | 7.26 µM
6 | O=C(CCC(=O)N1CCN(CCCN2c3ccccc3Sc3ccc(C(F)(F)F)cc32)CC1)OCCOCCOc1no[n+]([O-])c1S(=O)(=O)c1ccccc1 | 3.31 µM
7 | O=C1CC(c2ccc(O)cc2)Oc2cc(O)c(CN3CCN(CCCN4c5ccccc5Sc5ccc(C(F)(F)F)cc54)CC3)c(O)c21 (centres undefined) | > 50 µM
8 | O=C(CCC(=O)N1CCN(CCCN2c3ccccc3Sc3ccc(C(F)(F)F)cc32)CC1)OCCOc1no[n+]([O-])c1S(=O)(=O)c1ccccc1 | 1.36 µM
9 | O=C(CCC(=O)N1CCN(CCCN2c3ccccc3Sc3ccc(C(F)(F)F)cc32)CC1)OCCCCOc1no[n+]([O-])c1S(=O)(=O)c1ccccc1 | 1.35 µM
10 | CSc1ccc2c(c1)N(CCCN1CCN(C(=O)CCC(=O)OCCCCOc3no[n+]([O-])c3S(=O)(=O)c3ccccc3)CC1)c1ccccc1S2 | 0.84 µM
11 | CSc1ccc2c(c1)N(CCCN1CCN(C(=O)CCC(=O)OCCOc3no[n+]([O-])c3S(=O)(=O)c3ccccc3)CC1)c1ccccc1S2 | 1.85 µM

System: MDA-MB-231
Assay: Antiproliferative activity against human MDA-MB-231 cells assessed as reduction in cell viability incubated for 2 days by MTT assay
Format: functional, cell-based
Settings: MDA-MB-231, 48 h

Row | Structure (SMILES) | IC50
12 | O=C(CCC(=O)N1CCN(CCCN2c3ccccc3Sc3ccc(C(F)(F)F)cc32)CC1)OCC#CCOc1no[n+]([O-])c1S(=O)(=O)c1ccccc1 | 5.89 µM
13 | O=C(CCC(=O)N1CCN(CCCN2c3ccccc3Sc3ccc(C(F)(F)F)cc32)CC1)OCCOCCOc1no[n+]([O-])c1S(=O)(=O)c1ccccc1 | 3.12 µM
14 | O=C1CC(c2ccc(O)cc2)Oc2cc(O)c(CN3CCN(CCCN4c5ccccc5Sc5ccc(C(F)(F)F)cc54)CC3)c(O)c21 (centres undefined) | > 50 µM
15 | O=C(CCC(=O)N1CCN(CCCN2c3ccccc3Sc3ccc(C(F)(F)F)cc32)CC1)OCCOc1no[n+]([O-])c1S(=O)(=O)c1ccccc1 | 7.09 µM
16 | O=C(CCC(=O)N1CCN(CCCN2c3ccccc3Sc3ccc(C(F)(F)F)cc32)CC1)OCCCCOc1no[n+]([O-])c1S(=O)(=O)c1ccccc1 | 10.2 µM
17 | CSc1ccc2c(c1)N(CCCN1CCN(C(=O)CCC(=O)OCCCCOc3no[n+]([O-])c3S(=O)(=O)c3ccccc3)CC1)c1ccccc1S2 | 3.62 µM
18 | CSc1ccc2c(c1)N(CCCN1CCN(C(=O)CCC(=O)OCCOc3no[n+]([O-])c3S(=O)(=O)c3ccccc3)CC1)c1ccccc1S2 | 3.82 µM

System: SUM-159-PT
Assay: Potency index, ratio of IC50 of TFP to IC50 of compound for antiproliferative activity against human SUM159 cells assessed as reduction in cell viability incubated for 2 days by MTT assay
Format: functional
Settings: not given

Row | Structure (SMILES) | Ratio IC50
19 | O=C(CCC(=O)N1CCN(CCCN2c3ccccc3Sc3ccc(C(F)(F)F)cc32)CC1)OCCOCCOc1no[n+]([O-])c1S(=O)(=O)c1ccccc1 | 4 - 9
20 | O=C(CCC(=O)N1CCN(CCCN2c3ccccc3Sc3ccc(C(F)(F)F)cc32)CC1)OCCCCOc1no[n+]([O-])c1S(=O)(=O)c1ccccc1 | 6 - 15
21 | CSc1ccc2c(c1)N(CCCN1CCN(C(=O)CCC(=O)OCCCCOc3no[n+]([O-])c3S(=O)(=O)c3ccccc3)CC1)c1ccccc1S2 | 6 - 15

System: SUM-159-PT
Assay: Antiproliferative activity against human SUM159 cells assessed as reduction in cell viability incubated for 2 days by MTT assay
Format: functional, cell-based
Settings: 48 h

Row | Structure (SMILES) | IC50
22 | O=C(CCC(=O)N1CCN(CCCN2c3ccccc3Sc3ccc(C(F)(F)F)cc32)CC1)OCC#CCOc1no[n+]([O-])c1S(=O)(=O)c1ccccc1 | 5.44 µM
23 | O=C(CCC(=O)N1CCN(CCCN2c3ccccc3Sc3ccc(C(F)(F)F)cc32)CC1)OCCOCCOc1no[n+]([O-])c1S(=O)(=O)c1ccccc1 | 3.36 µM
24 | O=C1CC(c2ccc(O)cc2)Oc2cc(O)c(CN3CCN(CCCN4c5ccccc5Sc5ccc(C(F)(F)F)cc54)CC3)c(O)c21 (centres undefined) | 25 µM
25 | O=C(CCC(=O)N1CCN(CCCN2c3ccccc3Sc3ccc(C(F)(F)F)cc32)CC1)OCCOc1no[n+]([O-])c1S(=O)(=O)c1ccccc1 | 2.2 µM
26 | O=C(CCC(=O)N1CCN(CCCN2c3ccccc3Sc3ccc(C(F)(F)F)cc32)CC1)OCCCCOc1no[n+]([O-])c1S(=O)(=O)c1ccccc1 | 2.93 µM
27 | CSc1ccc2c(c1)N(CCCN1CCN(C(=O)CCC(=O)OCCCCOc3no[n+]([O-])c3S(=O)(=O)c3ccccc3)CC1)c1ccccc1S2 | 1.14 µM
28 | CSc1ccc2c(c1)N(CCCN1CCN(C(=O)CCC(=O)OCCOc3no[n+]([O-])c3S(=O)(=O)c3ccccc3)CC1)c1ccccc1S2 | 1.2 µM

System: MDA-MB-231
Assay: Potency index, ratio of IC50 of TFP to IC50 of compound for antiproliferative activity against human MDA-MB-231 cells assessed as reduction in cell viability incubated for 2 days by MTT assay
Format: functional
Settings: not given

Row | Structure (SMILES) | Ratio IC50
29 | O=C(CCC(=O)N1CCN(CCCN2c3ccccc3Sc3ccc(C(F)(F)F)cc32)CC1)OCCOCCOc1no[n+]([O-])c1S(=O)(=O)c1ccccc1 | 7
30 | CSc1ccc2c(c1)N(CCCN1CCN(C(=O)CCC(=O)OCCCCOc3no[n+]([O-])c3S(=O)(=O)c3ccccc3)CC1)c1ccccc1S2 | 6

System: MCF7
Assay: Potency index, ratio of IC50 of TFP to IC50 of compound for antiproliferative activity against human MCF7 cells assessed as reduction in cell viability incubated for 2 days by MTT assay
Format: functional
Settings: not given

Row | Structure (SMILES) | Ratio IC50
31 | O=C(CCC(=O)N1CCN(CCCN2c3ccccc3Sc3ccc(C(F)(F)F)cc32)CC1)OCCOCCOc1no[n+]([O-])c1S(=O)(=O)c1ccccc1 | 3
32 | O=C(CCC(=O)N1CCN(CCCN2c3ccccc3Sc3ccc(C(F)(F)F)cc32)CC1)OCCCCOc1no[n+]([O-])c1S(=O)(=O)c1ccccc1 | 4 - 13
33 | CSc1ccc2c(c1)N(CCCN1CCN(C(=O)CCC(=O)OCCCCOc3no[n+]([O-])c3S(=O)(=O)c3ccccc3)CC1)c1ccccc1S2 | 4 - 13

System: KG-1a
Assay: Antiproliferative activity against human KG1a cells assessed as reduction in cell viability incubated for 2 days by MTT assay
Format: functional, cell-based
Settings: 48 h

Row | Structure (SMILES) | IC50
34 | O=C(CCC(=O)N1CCN(CCCN2c3ccccc3Sc3ccc(C(F)(F)F)cc32)CC1)OCCOc1no[n+]([O-])c1S(=O)(=O)c1ccccc1 | 2.2 µM
35 | O=C(CCC(=O)N1CCN(CCCN2c3ccccc3Sc3ccc(C(F)(F)F)cc32)CC1)OCCCCOc1no[n+]([O-])c1S(=O)(=O)c1ccccc1 | 2.93 µM
36 | CSc1ccc2c(c1)N(CCCN1CCN(C(=O)CCC(=O)OCCCCOc3no[n+]([O-])c3S(=O)(=O)c3ccccc3)CC1)c1ccccc1S2 | 1.14 µM
37 | CSc1ccc2c(c1)N(CCCN1CCN(C(=O)CCC(=O)OCCOc3no[n+]([O-])c3S(=O)(=O)c3ccccc3)CC1)c1ccccc1S2 | 1.2 µM

System: SK-BR-3
Assay: Antiproliferative activity against human SKBR3 cells assessed as reduction in cell viability incubated for 2 days by MTT assay
Format: functional, cell-based
Settings: SK-BR-3, 48 h

Row | Structure (SMILES) | IC50
38 | O=C(CCC(=O)N1CCN(CCCN2c3ccccc3Sc3ccc(C(F)(F)F)cc32)CC1)OCC#CCOc1no[n+]([O-])c1S(=O)(=O)c1ccccc1 | 18 µM
39 | O=C(CCC(=O)N1CCN(CCCN2c3ccccc3Sc3ccc(C(F)(F)F)cc32)CC1)OCCOCCOc1no[n+]([O-])c1S(=O)(=O)c1ccccc1 | 10.1 µM
40 | O=C1CC(c2ccc(O)cc2)Oc2cc(O)c(CN3CCN(CCCN4c5ccccc5Sc5ccc(C(F)(F)F)cc54)CC3)c(O)c21 (centres undefined) | > 50 µM
41 | O=C(CCC(=O)N1CCN(CCCN2c3ccccc3Sc3ccc(C(F)(F)F)cc32)CC1)OCCOc1no[n+]([O-])c1S(=O)(=O)c1ccccc1 | 1.51 µM
42 | O=C(CCC(=O)N1CCN(CCCN2c3ccccc3Sc3ccc(C(F)(F)F)cc32)CC1)OCCCCOc1no[n+]([O-])c1S(=O)(=O)c1ccccc1 | 64.6 µM
43 | CSc1ccc2c(c1)N(CCCN1CCN(C(=O)CCC(=O)OCCCCOc3no[n+]([O-])c3S(=O)(=O)c3ccccc3)CC1)c1ccccc1S2 | 9.72 µM
44 | CSc1ccc2c(c1)N(CCCN1CCN(C(=O)CCC(=O)OCCOc3no[n+]([O-])c3S(=O)(=O)c3ccccc3)CC1)c1ccccc1S2 | 3.86 µM
